Results taken from patent US20260224528A1, “PSILOCIN FORMULATIONS” (Eleusis Therapeutics US, Inc., priority 2023, published 2026).

Experiment: Stability of DS in aqueous solution
Assay type: physicochemical
Details: pH range of 4 to 9; rapid degradation and discoloration
Procedure: The goal of this study was to develop an isotonic stable formulation with the psilocin benzoate Drug Substance (DS) concentration ranging from 0.5 to 3.0 mg/mL (mg free base psilocin) as a bulk sterile solution, having a pH in the range of 4 to 9 in a single use glass vial suitable for IV injection. […] This led to the development of a formulation of psilocin benzoate containing antioxidants, buffers, pH adjustment.

SMILES: CN(C)CCc1c[nH]c2cccc(O)c12.O=C(O)c1ccccc1 [DS, psilocin benzoate]
- Stability in aqueous solution: short stability in aqueous solution
